Data reported in patent US9040509B2, “Method of treating human skin and a skin care composition for use in such a method” (Pantarhei Bioscience B.V., priority 2002, dated 2015).
Like-named read-outs stand apart in the source and are kept apart here.

Tests used:
human ERα = human ERα (Homo sapiens (Human), UniProt P03372); assay: Competitive steroid binding assay, recombinant human ERα, [3H]E2 as labeled ligand; settings: Cheng and Prusoff from measured IC50
human ERβ = human ERβ (Homo sapiens (Human), UniProt Q92731); assay: Competitive steroid binding assay, recombinant human ERβ, [3H]E2 as labeled ligand; settings: Cheng and Prusoff from measured IC50
[1] = Elimination half-life after single subcutaneous administration in rats; type: in vivo; settings: female, Sprague Dawley, rat; single sc dose 0.05, 0.5 or 5 mg/kg in arachidis oil; plasma
Protocol: To determine the in vivo stability of estetrol (E4) its elimination half-life in female Sprague Dawley rats was determined after a single subcutaneous administration (sc) at several dose levels.
Female Sprague Dawley rats were equipped with a permanent silatic heart catheter, as described by Kuipers et al. (1985, Gastroenterology, 88, 403-411). Rats were allowed to recover from surgery for 5 days and were than administered 0.05, 0.5, or 5 mg/kg E4 in 0.5 ml arachidis oil. E4 was injected in the neck area using a 1 ml syringe and 20 g needle. Blood samples were subsequently collected via the heart catheter in heparinized tubes at 0.5, 1, 2, 4, 8 and 24 hours. Erythrocytes were removed by centrifugation at 5000×g for 10 minutes at 4° C. and blood plasma was stored at −20° C. […] With each sample batch, a calibration curve with 6 calibrators was recorded. The calibration curve was calculated using linear regression (correlation coefficient>0.98), which permitted quantitation of plasma concentrations. […]
Plasma E4 concentration data were analysed with “WinNonLin, edition 3.1” and involved pharmacokinetic parameters for Cmax, AUC0-24 and half-life.

uterine vasodilation = settings: intravenously administered; cited from earlier work
[2] = tested on: human breast cancer cells (MCF-7); settings: MCF-7, long term tissue culture; cited from earlier work
immature rat uterus = settings: subcutaneously administered, Holinka et al., cited from earlier work
uterus = settings: continuous administration from a subcutaneous depot; Martucci et al., 1977; cited from earlier work
[3] = tested on: estrogen receptor in the human endometrium; settings: Tseng et al., cited from earlier work
[4] = tested on: rat uterine cytosol estrogen receptor; settings: cited from earlier work
[5] = tested on: rat uterine nuclear estrogen receptor; settings: cited from earlier work
[6] = intravenous, two adult women, cited from earlier work

Sequence of human ERα (P03372 whole entry): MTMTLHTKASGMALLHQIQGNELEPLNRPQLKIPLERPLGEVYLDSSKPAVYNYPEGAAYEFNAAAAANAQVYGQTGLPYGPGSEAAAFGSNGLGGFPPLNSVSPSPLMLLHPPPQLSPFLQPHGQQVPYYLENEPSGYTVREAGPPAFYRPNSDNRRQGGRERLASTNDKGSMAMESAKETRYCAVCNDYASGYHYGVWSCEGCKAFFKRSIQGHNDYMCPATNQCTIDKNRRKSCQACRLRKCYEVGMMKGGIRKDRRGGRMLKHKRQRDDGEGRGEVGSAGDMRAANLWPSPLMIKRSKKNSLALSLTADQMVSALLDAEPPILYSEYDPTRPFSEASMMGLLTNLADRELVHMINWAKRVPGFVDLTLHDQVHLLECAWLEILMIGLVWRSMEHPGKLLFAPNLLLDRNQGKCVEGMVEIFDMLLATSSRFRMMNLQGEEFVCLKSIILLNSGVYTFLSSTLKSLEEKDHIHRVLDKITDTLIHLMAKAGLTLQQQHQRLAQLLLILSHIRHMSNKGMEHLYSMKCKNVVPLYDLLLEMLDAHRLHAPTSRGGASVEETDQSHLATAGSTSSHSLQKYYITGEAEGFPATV
Sequence of human ERβ (Q92731 whole entry): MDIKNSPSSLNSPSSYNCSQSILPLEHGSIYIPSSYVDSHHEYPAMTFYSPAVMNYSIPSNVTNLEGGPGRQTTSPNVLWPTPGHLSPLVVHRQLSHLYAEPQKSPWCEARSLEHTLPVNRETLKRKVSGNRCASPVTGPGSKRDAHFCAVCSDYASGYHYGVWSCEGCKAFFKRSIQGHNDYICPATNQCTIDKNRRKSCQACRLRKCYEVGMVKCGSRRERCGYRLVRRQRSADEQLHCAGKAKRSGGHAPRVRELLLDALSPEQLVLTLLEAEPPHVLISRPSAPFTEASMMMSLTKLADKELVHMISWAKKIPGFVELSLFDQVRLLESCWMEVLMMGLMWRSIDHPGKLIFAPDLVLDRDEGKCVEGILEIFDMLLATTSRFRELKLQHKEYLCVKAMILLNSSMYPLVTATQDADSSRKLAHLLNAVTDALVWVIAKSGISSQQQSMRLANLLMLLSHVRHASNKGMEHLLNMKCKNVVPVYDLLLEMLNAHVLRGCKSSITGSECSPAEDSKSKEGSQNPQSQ

Ki (human ERα): 4.9 nM | Ki (human ERβ): 19 nM | half-life [1]: 2 to 3 h
SMILES: C[C@]12CC[C@@H]3c4ccc(O)cc4CC[C@H]3[C@@H]1[C@@H](O)[C@@H](O)[C@@H]2O [E4, 1,3,5 (10)-estratrien-3,15α,16α,17β-tetrol]
potency in uterine vasodilation, times less potent than estriol and 17β-estradiol (uterine vasodilation): 15 to 30 times | agonistic potency in in vitro cell proliferation relative to 17β-estradiol [2]: 2% | uterotrophic activity (immature rat uterus; 1979): very weak uterotrophic activity | uterotrophic activity (immature rat uterus; 1980): very weak uterotrophic activity | uterotrophic activity (uterus): very weak uterotrophic activity | relative binding constant compared to 17β-estradiol (100%) [3]; 1976: 6.25% | relative binding to estrogen receptors, of 17β-estradiol [3]; 1978: 1.5% | relative binding affinity, of 17β-estradiol (100%) [4]: 0.5% | relative binding affinity, of 17β-estradiol (100%) [5]: 0.3% | excretion ([6]; urine): rapidly and completely excreted in urine as the glucosiduronate | metabolism [6]: virtually no metabolism except for conjugation took place
